Laboratory results published in patent US20070112057A1, “Polymorphic forms of tegaserod maleate” (priority 2005, published 2007).

Tests used:
[1] = Water absorption (hygroscopicity) test under 80% relative humidity; format: physicochemical; conditions: room temperature, 37 days
[2] = Weight loss measured by TGA; format: physicochemical; conditions: range of about 25° C. to about 200° C.
Procedure: Form Z has a weight loss of about 0.1% by weight at the range of about 25° C. to about 200° C., as measured by TGA.

[3] = cited from earlier work

Row | hygroscopicity (water absorption) [1] | weight loss as measured by TGA [2] | SMILES | solubility in ethanol ([3]; ethanol) | solubility in water ([3]; water)
1 | non hygroscopic | about 0.1 % by weight | CCCCCNC(=N)N/N=C/c1c[nH]c2ccc(OC)cc12.O=C(O)/C=C\C(=O)O [Form Z, tegaserod maleate] | – | –
2 | – | – | CCCCCNC(=N)N/N=C/c1c[nH]c2ccc(OC)cc12.O=C(O)/C=C\C(=O)O [Tegaserod maleate, 3-(5-methoxy-1H-indole-3-ylmethylene)-N-pentylcarbazimidamide hydrogen maleate] | slightly soluble | very slightly soluble
